SMILES strings stand for the structures.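 48-hour exposure; five concentrations; linearly interpolated endpoints. GI50 = concentration required for 50% inhibition of growth. TGI marks complete inhibition of growth.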

Holding throughout (test): NCI tumour cell line growth inhibition, 48 h
The subject of test [1] is UO-31 renal.
Test [2] concerns BT-549 breast.
Test [3] has as its system PC-3 prostate.
Test [4] relates to NCI-H460 lung.
The test system of test [5] is SK-MEL-28 melanoma.
The test system of test [6] is DU-145 prostate.
Test [7] deals with NCI/ADR-RES ovarian.
For test [8], the system named is RPMI-8226 leukemia.
For test [9], the system named is SK-MEL-2 melanoma.
Test [10] deals with HCC-2998 colon.

Take `CN(C)c1ccc2c(c1)OC(N)=C(C#N)C2c1ccc2c(c1)CCCN2C` (stereo unspecified): the GI50 was 5.15 µM in [1]; 2.03 µM in [2]; 2.64 µM in [3]; 1920 nM in [4]; 11 µM in test [5]; 3.51 µM in test [6]. The GI50 in test [7] is 1.12 µM; in test [8], 4.07 µM; in [9], 1.68 µM. The TGI in test [1] was 78.5 µM; in test [2] it was 13.2 µM; in test [3], greater than 100 µM; in test [4], 24.9 µM; in [5] it was 86.3 µM; in test [6], greater than 100 µM. Also, the TGI in test [7] turned out to be 9.08 µM; in [8], 31 µM; in [9], 28.6 µM.

`O=C(O)Cn1ccc(=O)c2c([N+](=O)[O-])cccc21`: the TGI in test [1], in test [2], in test [3], in test [4], in test [5] and in test [6] was greater than 100 µM each time. For the same compound, the TGI in test [7], in test [10] and in test [9] was greater than 100 µM throughout.

In the case of `NCC(Cc1ccccc1)P(=O)(O)O` (stereo unspecified), the TGI in [1], in [2], in [3], in test [4], in test [5] and in test [6] was greater than 100 µM in each case. For the same compound, the TGI in test [7], in test [10] and in [9] was greater than 100 µM throughout.

Turning to `O=C(Nc1ccc(Br)cc1)Nc1cccc(Br)c1`, the GI50 is greater than 100 µM in test [2], 4.77 µM in test [5], 5.8 µM in test [6] and 5.7 µM in test [9]. For the same compound, the TGI in test [2], in test [5], in test [6] and in test [9] was greater than 100 µM in each case.

Regarding `Nc1c(-c2nc3ccccc3s2)[n+]([O-])c2ccccc2[n+]1[O-]`, the TGI in test [1] was 77.7 µM; in [4], greater than 100 µM; in [5], 61.5 µM; in test [10], greater than 100 µM; in [8], 89.5 µM; in test [9], 74.9 µM.

With `O=C1c2ccoc2C(=O)c2oc(=O)ccc21`, the TGI is 14.9 µM in test [1]; 37.1 µM in test [4]; 11.5 µM in test [5]; greater than 59 µM in test [10]; 22.2 µM in test [8]; 22 µM in test [9].

As to `Nc1ncnc2sc(Nc3ccccc3)nc12`, the TGI in [1], in test [4], in test [5], in test [10], in test [8] and in test [9] was greater than 100 µM in each case.

Turning to `c1ccc2c(c1)[O][Sn][O]2`, the GI50 in [1] is 12.6 µg/mL; in test [4] it was 46 µg/mL; in [5] it was 81.8 µg/mL; in test [10], 81.5 µg/mL; in test [8], 7.54 µg/mL; in test [9], 92.6 µg/mL. In addition, the TGI in test [1], in test [4], in test [5], in test [10], in [8] and in test [9] was greater than 150 µg/mL in each case.

On to `CC(C)(C)c1cc(C(OCCl)(C(F)(F)F)C(F)(F)F)c2c(c1)C(C(F)(F)F)(C(F)(F)F)OC21c2ccccc2C(=O)c2ccccc21`, for which the TGI in [1], in test [4], in test [5], in test [10], in test [8] and in [9] was greater than 100 µM in each case.

Turning to `CCOC(=O)COc1cccc2occc(=O)c12`, the TGI in test [1], in test [4], in test [5], in [10], in test [8] and in test [9] was greater than 100 µM each time.

As for `O=C1c2ccccc2-c2c1c1ccc([N+](=O)[O-])cc1c(=O)n2CCCCl`, the GI50 in test [1] is 6.4 µM; in test [2], 13.3 µM; in test [3], 15.2 µM; in test [4] it was 2610 nM; in test [5] it was 17 µM; in test [6] it was 40.4 µM. The GI50 is 24.1 µM in test [7], 1.36 µM in test [8] and greater than 100 µM in [9]. In addition, the TGI in [1] was greater than 100 µM; in test [2], greater than 100 µM; in [3] it was greater than 100 µM; in test [4] it was 67.5 µM; in [5], greater than 100 µM; in test [6] it was greater than 100 µM. In addition, the TGI was greater than 100 µM in [7], 33.3 µM in test [8] and greater than 100 µM in test [9].

As for `O=CC(O)C(O)C(OC1OC(CO)C(O)C(O)C1O)C(O)CO` (stereo unspecified) (tested in a mixture with another compound), the TGI in test [1], in [3], in test [4], in test [5], in test [6] and in test [7] was greater than 100 µM in each case. The values for the TGI in test [8] and in test [9] were 59.2 µM and greater than 100 µM, respectively.

For `CC1(C)CC(O)CC(C)(C)N1.CC1(C)CC(O)CC(C)(C)N1.CC1(C)CC(O)CC(C)(C)N1.CC1(C)CC(O)CC(C)(C)N1.Cl.[Ti]`, the GI50 in test [1] was greater than 100 µM; in test [4] it was greater than 100000 nM; in [5], greater than 100 µM; in test [10] it was greater than 100 µM; in test [8], greater than 100 µM; in test [9], greater than 100 µM. Also, the TGI in [1], in test [4], in [5], in test [10], in [8] and in [9] was greater than 100 µM in each case.

Consider `O=S(=O)(Cc1ccccc1)SCc1ccccc1`, for which the TGI was greater than 100 µM in [1]; greater than 83.8 µM in [4]; 97.2 µM in test [5]; 55.2 µM in test [10]; 61.6 µM in test [8]; greater than 70.9 µM in test [9].

Take `NC(=O)C(=O)Cc1nc2ccccc2s1`: the TGI in test [1], in test [4], in test [5], in test [10], in test [8] and in test [9] was greater than 100 µM each time.

Turning to `COC(=O)c1ccc2c(c1)C(=O)c1c-2n(CCCCl)c(=O)c2cc(OC)c(OC)cc12`, the GI50 was greater than 100 µM in [1]; greater than 100 µM in test [3]; greater than 100000 nM in test [4]; greater than 100 µM in test [5]; greater than 100 µM in test [6]; greater than 100 µM in test [7]. Besides, the results for the GI50 in test [10], in test [8] and in test [9] were greater than 100 µM, 75.2 µM and greater than 100 µM, respectively. For the same compound, the TGI in test [1], in [3], in [4], in [5], in test [6] and in [7] was greater than 100 µM throughout. The TGI in test [10], in test [8] and in [9] was greater than 100 µM in each case.

For `CC(=O)OC1COC(Oc2c(C)c3c4c(c2O)[C@@H](C)CC[C@@H]4[C@@H](C)C[C@H]3C=C(C)C)C(O)C1O` (stereo partly specified), the GI50 was 25.1 µM in test [1]; 14.4 µM in test [3]; 16200 nM in [4]; 23.8 µM in [5]; 13.7 µM in test [6]; 15.3 µM in test [7]. The values for the GI50 in test [10], in test [8] and in test [9] were 15.1 µM, 16.6 µM and 47.1 µM, respectively. The TGI in test [1] is greater than 100 µM; in test [3], 31.1 µM; in test [4], 52.2 µM; in test [5] it was 57.3 µM; in test [6] it was 30.7 µM; in [7], 31.3 µM. The TGI in [10] is 31.3 µM; in [8], 39.5 µM; in [9], greater than 100 µM.

Take `O=C(Nc1cccc(-n2cc(-c3ccncc3)c(-c3ccc(O)c(Cl)c3)n2)c1)Nc1ccc(Cl)c(Cl)c1`: the GI50 is 2.67 µM in test [1]; 1.8 µM in test [2]; 2.07 µM in test [3]; 2220 nM in [4]; 1.8 µM in [5]; 2.39 µM in test [6]. Moreover, the GI50 in [10] is 3.65 µM; in test [8], 1.49 µM. Moreover, the TGI in test [1] came to 8.34 µM; in [2] it was 4.32 µM; in test [3] it was 7.45 µM; in test [4], 12.4 µM; in [5], 6.58 µM; in [6] it was 12.1 µM. Moreover, the results for the TGI in test [10] and in test [8] were greater than 100 µM and 4.54 µM, respectively.

Take `CC1=C(C(=O)CC(=O)C(=O)Nc2ccccc2C)Sc2ccccc2N1`: the TGI in test [1] is greater than 100 µM; in test [4] it was greater than 56.2 µM; in test [5] it was greater than 100 µM; in test [10], greater than 100 µM; in [8], greater than 65.5 µM; in test [9], greater than 100 µM.

Consider `COc1cc2c3c(n(CCCN4CCSCC4)c(=O)c2cc1OC)-c1cc2c(cc1C3=O)OCO2`, for which the GI50 in test [1] is greater than 100 µM; in [2], 56.7 µM; in [3], 42.8 µM; in [4] it was 49700 nM; in [5], greater than 100 µM; in test [6] it was greater than 100 µM. The values for the GI50 in test [7], in test [10] and in [9] were greater than 100 µM, 35.1 µM and 16.8 µM, respectively. Besides, the TGI in test [1], in test [2], in test [3], in test [4], in test [5] and in [6] was greater than 100 µM throughout. Also, the TGI was greater than 100 µM in test [7], greater than 100 µM in test [10] and 36.4 µM in test [9].

Turning to `Cc1cc(OC(=O)c2c(C)cc(OC(=O)c3c(C)cc(O)cc3O)cc2O)cc(O)c1C(=O)O`, the TGI in test [1], in test [4], in [5], in test [10], in test [8] and in [9] was greater than 100 µM throughout.

Consider `COc1cc(OC)c(/C=C/C(=O)c2c(N)cc(OC)cc2OC)c(OC)c1`, for which the GI50 was 1.36 µM in test [1]; 31.7 µM in test [2]; 1.77 µM in test [3]; 347 nM in [4]; 2.18 µM in test [5]; 0.608 µM in test [6]. For the same compound, the GI50 is 1.25 µM in test [10], 0.815 µM in test [8] and 0.528 µM in [9]. Also, the TGI in [1] was greater than 100 µM; in test [2], greater than 100 µM; in test [3] it was greater than 100 µM; in test [4] it was greater than 51.2 µM; in test [5], greater than 100 µM; in [6], greater than 100 µM. Besides, the TGI in test [10] is greater than 54.1 µM; in [8] it was greater than 100 µM; in [9], greater than 100 µM.

As to `CCC1=C(c2ccc(OC)cc2)CC[C@]2(CCNC2=O)[C@@H]1C`, the TGI in test [1] is 66.3 µM; in test [3] it was greater than 77 µM; in [4], greater than 85.9 µM; in [5] it was 74.1 µM; in [6], greater than 100 µM; in [7], greater than 92.2 µM. Also, the TGI is greater than 65.3 µM in test [10], 45.7 µM in test [8] and 52.4 µM in test [9].

In the case of `CCOC(=O)C1=C(C)N(Cc2ccc(Cl)cc2Cl)[C@]2(C#N)C(O)=C(Cl)C(Cl)=C(O)[C@]12C#N`, the GI50 in test [1] is 92 µM; in test [2], 21.1 µM; in [4] it was greater than 100000 nM; in test [5] it was greater than 100 µM; in test [6], 16.7 µM; in test [7], 0.19 µM. The GI50 is 21.2 µM in test [8] and greater than 100 µM in [9]. The TGI in test [1] was greater than 100 µM; in test [2], greater than 100 µM; in test [4], greater than 100 µM; in test [5], greater than 100 µM; in [6], 38.7 µM; in test [7], 15.6 µM. Besides, the TGI was 47.3 µM in [8] and greater than 100 µM in [9].

These data come from PubChem BioAssay (NCI).
